Experimental data published in patent US20250163104A1, “MACROCYCLIC IMMUNOMODULATORS” (priority 2021, published 2025).
Where a SMILES comes first, the peptide text is derived from it. Bridges are numbered along the chain shown (N, C = ends). [ ]: non-standard residue; d: D form. The star is where a group is joined. ξ: configuration not given here. Phe(4-COOH) = N[C@@H](Cc1ccc(C(=O)O)cc1)C(=O)O; Bip = N[C@@H](Cc1ccc(-c2ccccc2)cc1)C(=O)O; Phe(3-Me) = Cc1cccc(C[C@H](N)C(=O)O)c1; 3Pal = N[C@@H](Cc1cccnc1)C(=O)O; 4Pal = N[C@@H](Cc1ccncc1)C(=O)O; Cha = N[C@@H](CC1CCCCC1)C(=O)O; Cit = NC(=O)NCCC[C@H](N)C(=O)O; Ile(3ξ) = CCC(C)[C@H](N)C(=O)O; Thr(3ξ) = CC(O)[C@H](N)C(=O)O; Tle = CC(C)(C)[C@H](N)C(=O)O; dNle = CCCC[C@@H](N)C(=O)O; Carboxymethyl = O=C(O)C*; Nle = CCCC[C@H](N)C(=O)O; Orn = NCCC[C@H](N)C(=O)O; Pra = C#CC[C@H](N)C(=O)O; Dab = NCC[C@H](N)C(=O)O; Dap = NC[C@H](N)C(=O)O; Ac3c = NC1(C(=O)O)CC1

What follows are compounds tested against T1, human PD-1 / PD-L1-Ig binding on Jurkat cell line over-expressing human PD-1 (Jurkat-PD-1) (Homo sapiens, UniProt Q15116) (assay: Jurkat-PD-1 Cell Binding High-Content Screening Assay (CBA)). Conditions: Jurkat HPD1_PDL1 IC50, Jurkat-PD-1 cells, PE-labeled PD-L1-Ig 20 nM final.
T1 construct: expressed in transfected cells; host or cells: Jurkat
T1 sequence (Q15116 25-288): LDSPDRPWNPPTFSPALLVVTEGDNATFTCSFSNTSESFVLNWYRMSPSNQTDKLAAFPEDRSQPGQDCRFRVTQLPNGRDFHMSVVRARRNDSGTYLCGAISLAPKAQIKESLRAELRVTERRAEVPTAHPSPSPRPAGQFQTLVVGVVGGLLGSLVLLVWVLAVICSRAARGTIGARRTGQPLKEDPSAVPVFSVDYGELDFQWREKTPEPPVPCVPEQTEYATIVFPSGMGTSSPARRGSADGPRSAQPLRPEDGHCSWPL
Type: cell-based
Method in brief: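 Cell-bound PE-labeled PD-L1-Ig (20 nM final, 1 h) measured by high-content imaging after fixation and Hoechst 33342 counterstain. Compound was applied first for 2 h at 37° C. to Jurkat cells over-expressing human PD-1 in DMEM with 10% FCS.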

Compound	IC50 [µM]
CC(C)C[C@H]1NC(=O)[C@H](CCCN)NC(=O)[C@H](CCCNC(N)=O)NC(=O)[C@H](Cc2ccc(-c3ccccc3)cc2)NC(=O)[C@H](C(C)C)NC(=O)[C@H](Cc2c[nH]c3ccccc23)NC(=O)[C@H](CC(=O)O)NC(=O)[C@H](Cc2ccc(C(=O)O)cc2)NC(=O)[C@H](Cc2ccc(OCC(=O)O)cc2)NC(=O)CSC[C@@H](C(=O)N[C@@H](C)C(N)=O)NC(=O)[C@H]([C@@H](C)O)NC(=O)[C@H](C(C)C)NC(=O)[C@H](Cc2ccccc2)NC(=O)[C@H](CCN)NC1=O [Compound 1664] ({CH2CO}-Y(Carboxymethyl)[Phe(4-COOH)]DWV[Bip][Cit][Orn][dL][Dab]FVTCA-NH2; thioether N-14)	0.0363

Same assay, conditions: Jurkat-PD-1 cells, PE-labeled PD-L1-Ig 20 nM final; read-out: Jurkat HPD1_PDL1 IC50

IC50 [µM]	Compound
0.0146	Cc1cccc(C[C@@H]2NC(=O)[C@H](CC(=O)O)NC(=O)[C@H](Cc3ccc(C(=O)O)cc3)NC(=O)[C@H](Cc3ccncc3)NC(=O)CSC[C@@H](C(=O)N[C@@H](CC(N)=O)C(N)=O)NC(=O)[C@H](C(C)O)NC(=O)[C@H](C(C)C)NC(=O)[C@H](CC3CCCCC3)NC(=O)[C@H](CCN)NC(=O)[C@@H](CC(C)C)NC(=O)[C@H](CCCN)NC(=O)[C@H](Cc3ccc(O)cc3)NC(=O)[C@H](Cc3ccc(-c4ccccc4)cc3)NC(=O)[C@H](C(C)C)NC2=O)c1 (stereo partly drawn) [Compound 2288] ({CH2CO}-[4Pal][Phe(4-COOH)]D[Phe(3-Me)]V[Bip]Y[Orn][dL][Dab][Cha]V[Thr(3ξ)]CN-NH2; thioether N-14)
0.0212	C#CC[C@@H]1NC(=O)[C@H](CC2CCCCC2)NC(=O)[C@H](CCN)NC(=O)[C@@H](CC(C)C)NC(=O)[C@H](CCCN)NC(=O)[C@H](C(C)C)NC(=O)[C@H](Cc2ccc(-c3ccccc3)cc2)NC(=O)[C@H](C(C)C)NC(=O)[C@H](Cc2cccc(C)c2)NC(=O)[C@H](CC(=O)O)NC(=O)[C@H](Cc2ccc(OCC(=O)O)cc2)NC(=O)[C@H](CN)NC(=O)CSC[C@@H](C(N)=O)NC(=O)[C@H]([C@@H](C)O)NC1=O [Compound 2013] ({CH2CO}-[Dap]Y(Carboxymethyl)D[Phe(3-Me)]V[Bip]V[Orn][dL][Dab][Cha][Pra]TC-NH2; thioether N-14)
0.0546	Cc1cccc(C[C@@H]2NC(=O)[C@H](CCN)NC(=O)[C@@H](CC(C)C)NC(=O)[C@H](CCCN)NC(=O)[C@H](CCC(=O)O)NC(=O)[C@H](Cc3ccc(-c4ccccc4)cc3)NC(=O)[C@H](C(C)C)NC(=O)[C@H](Cc3c[nH]c4ccccc34)NC(=O)[C@H](CC(=O)O)NC(=O)[C@H](Cc3ccc(OCC(=O)O)cc3)NC(=O)[C@H](CN)NC(=O)CSC[C@@H](C(=O)N[C@@H](C)C(N)=O)NC(=O)[C@H]([C@@H](C)O)NC(=O)[C@H](C(C)C)NC2=O)c1 [Compound 1470] ({CH2CO}-[Dap]Y(Carboxymethyl)DWV[Bip]E[Orn][dL][Dab][Phe(3-Me)]VTCA-NH2; thioether N-14)
0.0067	CC(C)C[C@H]1NC(=O)[C@H](CCCN)NC(=O)[C@H](C(C)C)NC(=O)[C@H](Cc2ccc(-c3ccccc3)cc2)NC(=O)[C@H](C(C)C)NC(=O)[C@H](Cc2c[nH]c3ccccc23)NC(=O)[C@H](CC(=O)O)NC(=O)[C@H](Cc2ccc(OCC(=O)O)cc2)NC(=O)[C@H](Cc2ccc(OCC(=O)O)cc2)NC(=O)CSC[C@@H](C(=O)N[C@@H](C)C(N)=O)NC(=O)[C@H](Cc2cnc[nH]2)NC(=O)[C@H](C(C)C)NC(=O)[C@H](CC2CCCCC2)NC(=O)[C@H](CCN)NC1=O [Compound 1752] ({CH2CO}-Y(Carboxymethyl)Y(Carboxymethyl)DWV[Bip]V[Orn][dL][Dab][Cha]VHCA-NH2; thioether N-14)
0.134	CCC(C)[C@@H]1NC(=O)[C@H](Cc2ccc(-c3ccccc3)cc2)NC(=O)[C@H](C(C)C)NC(=O)[C@H](Cc2cc(C)ccc2OC)NC(=O)[C@H](CC(=O)O)NC(=O)[C@H](Cc2ccc(OCC(=O)O)cc2)NC(=O)[C@H](CN)NC(=O)CSC[C@@H](C(=O)N[C@@H](C)C(N)=O)NC(=O)[C@H]([C@@H](C)O)NC(=O)[C@H](C(C)C)NC(=O)[C@H](CC2CCCCC2)NC(=O)[C@H](CCN)NC(=O)[C@@H](CC(C)C)NC(=O)[C@H](CCCN)NC1=O (stereo partly drawn) [Compound 2249]
0.0133	CC[C@H](C)[C@@H]1NC(=O)[C@H](Cc2ccc(-c3ccccc3)cc2)NC(=O)[C@H](C(C)C)NC(=O)[C@H](Cc2c[nH]c3ccccc23)NC(=O)[C@H](CC(=O)O)NC(=O)[C@H](Cc2ccc(O)cc2)NC(=O)[C@H](CC(N)=O)NC(=O)CSC[C@@H](C(=O)N[C@@H](C)C(N)=O)NC(=O)[C@H](CO)NC(=O)[C@H](C(C)C)NC(=O)[C@H](CC(C)C)NC(=O)[C@H](CCN)NC(=O)[C@@H](CC(C)C)NC(=O)[C@H](CCCCN)NC1=O [Compound 1119] ({CH2CO}-NYDWV[Bip]IK[dL][Dab]LVSCA-NH2; thioether N-14)
0.0074	CC(C)C[C@@H]1NC(=O)[C@H](Cc2c[nH]c3ccccc23)NC(=O)[C@H](CC(=O)O)NC(=O)[C@H](Cc2ccc(C(=O)O)cc2)NC(=O)[C@H](Cc2ccc(OCC(=O)O)cc2)NC(=O)CSC[C@@H](C(=O)NCC(N)=O)NC(=O)[C@H](CO)NC(=O)[C@H](C(C)C)NC(=O)[C@H](CC(C)C)NC(=O)[C@H](CCN)NC(=O)[C@@H](CC(C)C)NC(=O)[C@H](CCCN)NC(=O)[C@H](C(C)C)NC(=O)[C@H](Cc2ccc(-c3ccccc3)cc2)NC1=O [Compound 1254] ({CH2CO}-Y(Carboxymethyl)[Phe(4-COOH)]DWL[Bip]V[Orn][dL][Dab]LVSCG-NH2; thioether N-14)
0.0269	Cc1cccc(C[C@@H]2NC(=O)[C@H](CC(=O)O)NC(=O)[C@H](Cc3ccc(OCC(=O)O)cc3)NC(=O)[C@H](Cc3cccnc3)NC(=O)CSC[C@@H](C(N)=O)NC(=O)[C@H]([C@@H](C)O)NC(=O)[C@H](C(C)C)NC(=O)[C@H](CC(C)C)NC(=O)[C@H](CCN)NC(=O)[C@@H](CC(C)C)NC(=O)[C@H](CCCN)NC(=O)[C@H](C(C)C)NC(=O)[C@H](Cc3ccc(-c4ccccc4)cc3)NC(=O)[C@H](C(C)C)NC2=O)c1 [Compound 1553] ({CH2CO}-[3Pal]Y(Carboxymethyl)D[Phe(3-Me)]V[Bip]V[Orn][dL][Dab]LVTC-NH2; thioether N-14)
0.0363	CCC(C)[C@@H]1NC(=O)[C@H](Cc2ccc(-c3ccccc3)cc2)NC(=O)[C@H](C(C)C)NC(=O)[C@H](Cc2cccc(C)c2)NC(=O)[C@H](CC(=O)O)NC(=O)[C@H](Cc2ccc(C(=O)O)cc2)NC(=O)[C@H](Cc2ccncc2)NC(=O)CSC[C@@H](C(N)=O)NC(=O)[C@H]([C@@H](C)O)NC(=O)[C@H](C(C)(C)C)NC(=O)[C@H](CC2CCCCC2)NC(=O)[C@H](CCN)NC(=O)[C@@H](CC(C)C)NC(=O)[C@H](CCCN)NC1=O (stereo partly drawn) [Compound 2274] ({CH2CO}-[4Pal][Phe(4-COOH)]D[Phe(3-Me)]V[Bip][Ile(3ξ)][Orn][dL][Dab][Cha][Tle]TC-NH2; thioether N-14)
0.0214	CCCC[C@H]1NC(=O)[C@H](CCCN)NC(=O)[C@H](CCCNC(N)=O)NC(=O)[C@H](Cc2ccc(-c3ccccc3)cc2)NC(=O)[C@H](C(C)C)NC(=O)[C@H](Cc2c[nH]c3ccccc23)NC(=O)[C@H](CC(=O)O)NC(=O)[C@H](Cc2ccc(OCC(=O)O)cc2)NC(=O)[C@H](CN)NC(=O)CSC[C@@H](C(=O)N[C@@H](C)C(N)=O)NC(=O)[C@H]([C@@H](C)O)NC(=O)[C@H](C(C)C)NC(=O)[C@H](CC2CCCCC2)NC(=O)[C@H](CCN)NC1=O [Compound 1700]
0.0339	CCCC[C@H]1NC(=O)[C@H](CCCN)NC(=O)[C@H]([C@@H](C)CC)NC(=O)[C@H](Cc2ccc(-c3ccccc3)cc2)NC(=O)[C@H](C(C)C)NC(=O)[C@H](Cc2c[nH]c3ccccc23)NC(=O)[C@H](CC(=O)O)NC(=O)[C@H](Cc2ccncc2)NC(=O)[C@H](Cc2ccc(OCC(=O)O)cc2)NC(=O)CSC[C@@H](C(=O)N[C@@H](C)C(N)=O)NC(=O)[C@H]([C@@H](C)O)NC(=O)[C@H](C(C)C)NC(=O)[C@H](CC2CCCCC2)NC(=O)[C@H](CCN)NC1=O [Compound 1710] ({CH2CO}-Y(Carboxymethyl)[4Pal]DWV[Bip]I[Orn][dNle][Dab][Cha]VTCA-NH2; thioether N-14)
0.0168	Cc1cccc(C[C@@H]2NC(=O)[C@H](CC(=O)O)NC(=O)[C@H](Cc3ccc(OCC(=O)O)cc3)NC(=O)[C@H](CN)NC(=O)CSC[C@@H](C(=O)NC3(C(N)=O)CC3)NC(=O)[C@H](CCCN)NC(=O)[C@H](C(C)C)NC(=O)[C@H](CC3CCCCC3)NC(=O)[C@H](CCN)NC(=O)[C@@H](CC(C)C)NC(=O)[C@H](CCCN)NC(=O)[C@H](Cc3ccc(O)cc3)NC(=O)[C@H](Cc3ccc(-c4ccccc4)cc3)NC(=O)[C@H](Cc3ccc(O)cc3)NC2=O)c1 [Compound 2043] ({CH2CO}-[Dap]Y(Carboxymethyl)D[Phe(3-Me)]Y[Bip]Y[Orn][dL][Dab][Cha]V[Orn]C[Ac3c]-NH2; thioether N-14)
0.0128	CC(C)C[C@@H]1NC(=O)[C@H](Cc2c[nH]c3ccccc23)NC(=O)[C@H](CC(=O)O)NC(=O)[C@H](Cc2ccc(O)cc2)NC(=O)[C@H](Cc2ccccc2)NC(=O)CSC[C@@H](C(=O)N[C@@H](C)C(N)=O)NC(=O)[C@H](CO)NC(=O)[C@H](C(C)C)NC(=O)[C@H](CC(C)C)NC(=O)[C@H](CC(N)=O)NC(=O)[C@@H](CC(C)C)NC(=O)[C@H](CCCN)NC(=O)[C@H](C(C)C)NC(=O)[C@H](Cc2ccc(-c3ccccc3)cc2)NC1=O [Compound 1065] ({CH2CO}-FYDWL[Bip]V[Orn][dL]NLVSCA-NH2; thioether N-14)
0.0237	CCCC[C@@H]1NC(=O)[C@H](CC(N)=O)NC(=O)[C@@H](CC(C)C)NC(=O)[C@H](CN)NC(=O)[C@H](C(C)C)NC(=O)[C@H](Cc2ccc(-c3ccccc3)cc2)NC(=O)[C@H](CC(C)C)NC(=O)[C@H](Cc2c[nH]c3ccccc23)NC(=O)[C@H](CC(=O)O)NC(=O)[C@H](Cc2ccc(C(=O)O)cc2)NC(=O)[C@H](Cc2ccc(OCC(=O)O)cc2)NC(=O)CSC[C@@H](C(=O)NCC(N)=O)NC(=O)[C@H](CO)NC(=O)[C@H](C(C)C)NC1=O [Compound 1398] ({CH2CO}-Y(Carboxymethyl)[Phe(4-COOH)]DWL[Bip]V[Dap][dL]N[Nle]VSCG-NH2; thioether N-14)
